Earlier results, collected in PMC11990879, “Anticandidal Activity of Lipopeptides Containing an LL-37-Derived Peptide Fragment KR12” (Molecules, 2025).
Like-named read-outs stand apart in the source and are kept apart here. Marks after values point to notes of the source that are not given here. Where a SMILES comes first, the peptide text is derived from it. The star is where a group is joined. Octanoyl = CCCCCCCC(=O)*; X3 = O=C(/C=C/c1ccccc1)*; Hexanoyl = CCCCCC(=O)*; Butyryl = CCCC(=O)*

System: human red blood cells
Conditions: cited from earlier work
Text: Table 2 Minimum inhibitory concentrations (MIC) and minimum fungicidal concentrations (MFC) determined for peptides and reference antifungals [g/L]. The highest antimicrobial activity is marked in green, medium values in yellow, while the weakest antifungal activity is marked in red. Minimum hemolytic concentration (MHC5%—causing hemolysis of 5% of human red blood cells) determined in previous stu | column: MHC5%

[1] = human red blood cells, determined in previous studies, ref [13],[14]

## CCCC(=O)N[C@@H](CCCCN)C(=O)N[C@@H](CCCNC(=N)N)C(=O)N[C@H](C(=O)N[C@H](C(=O)N[C@@H](CCC(N)=O)C(=O)N[C@@H](CCCNC(=N)N)C(=O)N[C@H](C(=O)N[C@@H](CCCCN)C(=O)N[C@@H](CC(=O)O)C(=O)N[C@@H](Cc1ccccc1)C(=O)N[C@@H](CC(C)C)C(=O)N[C@@H](CCCNC(=N)N)C(N)=O)[C@@H](C)CC)C(C)C)[C@@H](C)CC [II, C4-KR12-NH2] (Butyryl-KRIVQRIKDFLR-NH2)
[1]
  MHC5% (minimum hemolytic concentration causing hemolysis of 5% of human red blood cells): >256 * g/L

## CCCCCC(=O)N[C@@H](CCCCN)C(=O)N[C@@H](CCCNC(=N)N)C(=O)N[C@H](C(=O)N[C@H](C(=O)N[C@@H](CCC(N)=O)C(=O)N[C@@H](CCCNC(=N)N)C(=O)N[C@H](C(=O)N[C@@H](CCCCN)C(=O)N[C@@H](CC(=O)O)C(=O)N[C@@H](Cc1ccccc1)C(=O)N[C@@H](CC(C)C)C(=O)N[C@@H](CCCNC(=N)N)C(N)=O)[C@@H](C)CC)C(C)C)[C@@H](C)CC [III, C6-KR12-NH2] (Hexanoyl-KRIVQRIKDFLR-NH2)
[1]
  MHC5% (minimum hemolytic concentration causing hemolysis of 5% of human red blood cells): 256 g/L

## CC[C@H](C)[C@H](NC(=O)[C@H](CCCNC(=N)N)NC(=O)[C@H](CCC(N)=O)NC(=O)[C@@H](NC(=O)[C@@H](NC(=O)[C@H](CCCNC(=N)N)NC(=O)[C@H](CCCCN)NC(=O)/C=C/c1ccccc1)[C@@H](C)CC)C(C)C)C(=O)N[C@@H](CCCCN)C(=O)N[C@@H](CC(=O)O)C(=O)N[C@@H](Cc1ccccc1)C(=O)N[C@@H](CC(C)C)C(=O)N[C@@H](CCCNC(=N)N)C(N)=O [IX, trans-cinnamic acid-KR12-NH2] (X3-KRIVQRIKDFLR-NH2)
  MHC5% (minimum hemolytic concentration causing hemolysis of 5% of human red blood cells): 128 g/L

## CCCCCCCC(=O)NCCCC[C@H](N)C(=O)N[C@@H](CCCNC(=N)N)C(=O)N[C@H](C(=O)N[C@H](C(=O)N[C@@H](CCC(N)=O)C(=O)N[C@@H](CCCNC(=N)N)C(=O)N[C@H](C(=O)N[C@@H](CCCCN)C(=O)N[C@@H](CC(=O)O)C(=O)N[C@@H](Cc1ccccc1)C(=O)N[C@@H](CC(C)C)C(=O)N[C@@H](CCCNC(=N)N)C(N)=O)[C@@H](C)CC)C(C)C)[C@@H](C)CC [XI, C8^ε-KR12-NH2] (H-K(Octanoyl)RIVQRIKDFLR-NH2)
  MHC5% (minimum hemolytic concentration causing hemolysis of 5% of human red blood cells): >256 * g/L

## CCCCCCCC(=O)N[C@@H](CCCCN)C(=O)N[C@@H](CCCCN)C(=O)N[C@@H](CCCNC(=N)N)C(=O)N[C@H](C(=O)N[C@H](C(=O)N[C@@H](CCC(N)=O)C(=O)N[C@@H](CCCNC(=N)N)C(=O)N[C@H](C(=O)N[C@@H](CCCCN)C(=O)N[C@@H](CC(=O)O)C(=O)N[C@@H](Cc1ccccc1)C(=O)N[C@@H](CC(C)C)C(=O)N[C@@H](CCCNC(=N)N)C(N)=O)[C@@H](C)CC)C(C)C)[C@@H](C)CC [XII, C8^α-Lys-KR12-NH2] (Octanoyl-KKRIVQRIKDFLR-NH2)
  MHC5% (minimum hemolytic concentration causing hemolysis of 5% of human red blood cells): 256 g/L

## CCCCCCCC(=O)NCCCC[C@H](N)C(=O)N[C@@H](CCCCN)C(=O)N[C@@H](CCCNC(=N)N)C(=O)N[C@H](C(=O)N[C@H](C(=O)N[C@@H](CCC(N)=O)C(=O)N[C@@H](CCCNC(=N)N)C(=O)N[C@H](C(=O)N[C@@H](CCCCN)C(=O)N[C@@H](CC(=O)O)C(=O)N[C@@H](Cc1ccccc1)C(=O)N[C@@H](CC(C)C)C(=O)N[C@@H](CCCNC(=N)N)C(N)=O)[C@@H](C)CC)C(C)C)[C@@H](C)CC [XIII, C8^ε-Lys-KR12-NH2] (H-K(Octanoyl)KRIVQRIKDFLR-NH2)
[1]
  MHC5% (minimum hemolytic concentration causing hemolysis of 5% of human red blood cells): 256 g/L

## CCCCCCCC(=O)NCCCC[C@H](NC(=O)[C@H](CCCNC(=N)N)NC(=O)[C@H](CC(C)C)NC(=O)[C@H](Cc1ccccc1)NC(=O)[C@H](CC(=O)O)NC(=O)[C@H](CCCCN)NC(=O)[C@@H](NC(=O)[C@H](CCCNC(=N)N)NC(=O)[C@H](CCC(N)=O)NC(=O)[C@@H](NC(=O)[C@@H](NC(=O)[C@H](CCCNC(=N)N)NC(=O)[C@@H](N)CCCCN)[C@@H](C)CC)C(C)C)[C@@H](C)CC)C(N)=O [XIV, KR12-Lys^ε(C8)-NH2] (H-KRIVQRIKDFLRK(Octanoyl)-NH2)
[1]
  MHC5% (minimum hemolytic concentration causing hemolysis of 5% of human red blood cells): >256 * g/L
